Reference: PMC8198214, “Synthesis and Biological Evaluation of Spirocyclic Chromane Derivatives as a Potential Treatment of Prostate Cancer” (Molecules, 2021)
Like-named read-outs stand apart in the source and are kept apart here.

How the values were obtained:
22Rv1 cells = assay: 22Rv1 cell viability (CCK-8) antiproliferation assay; assay type: cell-based, human; conditions: for IC50: Homo sapiens, Table 2, 22Rv1 cells, means of two independent experiments (n = 2)
Method: The 22Rv1 prostate cancer cell line in this study was purchased from KeyGEN Biotech Co. Ltd. (Nanjing, Jiangsu, China ). The cells were cultured in RPMI 1640 medium and maintained at 37 °C in a 5% CO2 incubator. For the cell viability assay, the cell slurry was diluted to required volume at a density of 80,000 cells/mL. Then, 100 μL the cell slurry was seeded in each well of the 96-well plate. The cells were incubated for 72 h at 37 °C, 5% CO2 under humidified condition. The reference and test compounds solution (200×) were prepared with DMSO and were diluted from 200× to 1× with culture medium (RPMI 1640 medium without phenol red and containing 10% fetal calf serum, penicillin (100U/mL), streptomycin (100 μg/mL) and 0.1 nM DHT). The previous culture medium was removed and 200 μL/well of the compound solution (1×) was added to assay plate (final conc: 1×). Then the cells were incubated at 37 °C, 5% CO2 under humidified conditions. 5 Days later, the CCK-8 assay reagent was equilibrated at room temperature for 30 min prior to use. CCK-8 was mixed with fresh medium at a ratio of 1:10 and 100 μL of the diluted CCK8 reagent was added to each well and the plates were incubated for 4.5 h at 37 °C. Finally, absorbance value (OD value) was read on plate reader. GraphPad Prism v5.0 software was used to process data for IC50.

[1] = Pharmacokinetics in male Balb/C mice (IV and PO); assay type: in vivo; conditions: mouse, plasma; for clearance: n = 3, read-out: CL (clearance) (converted); for Vd: n = 3, read-out: V ss (0–24 h) (volume of distribution at steady state); for bioavailability: PO. 10 mg/kg vs IV. 1 mg/kg, n = 3, read-out: F (oral bioavailability); for Cmax: n = 3, Table 3, read-out: Cmax (maximum concentration observed)
Method: Pharmacokinetic experiments of test compounds were performed in male Balb/C mice similarly to our previous work. The mice were randomly assigned to two groups and were administrated the test compound orally and intravenously, respectively. The test compounds were prepared into 0.5 mg/mL oral solution with 10%PG, 10% ethanol, 10% solutol and 70% normal saline, or 0.1 mg/mL injection solution with 2% PG, 2% ethanol, 2% solutol and 94% normal saline. After intravenous or oral administration, blood was collected from the orbital venous plexus into heparinized EP tube (0.6 mL) at 5, 15, 30 min, 1, 2, 6, 10, and 24 h, temporarily placed on crushed ice. Certain processing was performed on blood samples and testing samples were sent to LC-MS/MS for analysis.

[2] = IV. 1 mg/kg, n = 3, read-out: AUC(0–24h)
[3] = IV. 1 mg/kg, n = 3, read-out: T1/2 (half-life) (converted)
[4] = PO. 10 mg/kg, n = 3, Table 3, read-out: AUC (0–24 h)
[5] = PO. 10 mg/kg, n = 3, Table 3, read-out: T1/2 (converted)

IC50 (22Rv1 cells) [nM]	AUC(0-t) [1, 2] [ng·h/mL]	clearance ([1]; IV. 1 mg/kg) [mL/min/kg]	half-life [1, 3] [h]	Vd ([1]; IV. 1 mg/kg) [L/kg]	bioavailability [1] [%]	AUC(0-t) [1, 4] [ng·h/mL]	Cmax ([1]; PO. 10 mg/kg) [ng/mL]	half-life [1, 5] [h]	Compound	fold more potency than A-485 (22Rv1 cells; 22Rv1 cell antiproliferation) [fold]
153	766 ± 71.2	18.3	17 ± 4.9	13.2 ± 4.2	21.6 ± 3.8	1660 ± 294	878 ± 94.3	23.9 ± 3.6	CNC(=O)Cn1cc(-c2ccc3c(c2)CCC32OC(=O)N(CC(=O)N(Cc3ccc(F)cc3)[C@H]3CCc4cccnc43)C2=O)cn1 (stereo partly drawn) [B8, N-((S)-6,7-Dihydro-5H-cyclopenta[b]pyridin-7-yl)-N-(4-fluorobenzyl)-2-(5-(1-(2-(methylamino)-2-oxoethyl)-1H-pyrazol-4-yl)-2′,4′-dioxo-2,3-dihydrospiro[indene-1,5′-oxazolidin]-3′-yl)acetamide]	
96	536 ± 18.1	30	0.5	1 ± 0.1	33.2 ± 3	1780 ± 158	759 ± 76.5	1.6 ± 0.3	CNC(=O)Cn1cc(-c2ccc3c(c2)CCC32OC(=O)N(CC(=O)N(Cc3ccc(F)cc3)[C@H]3CCOc4ccccc43)C2=O)cn1 (stereo partly drawn) [B16, N-((S)-chroman-4-yl)-N-(4-fluorobenzyl)-2-(5-(1-(2-(methylamino)-2-oxoethyl)-1H-pyrazol-4-yl)-2′,4′-dioxo-2,3-dihydrospiro[indene-1,5′-oxazolidin]-3′-yl) acetamide]	2
